In patent publication US20240226072A1 (Stichting Het Nederlands Kanker Instituut, priority 2022, published 2024):
Read-outs that look alike come from different tables or passages of the source. One block for each compound: values may come before it.

Tests used:
[1] = Cyp3a−/− compared to wild-type mice; earlier study; cited from earlier work
[2] = Carboxylesterase pharmacokinetic experiment: oral cabazitaxel 10 mg/kg, 2 h, in wild-type, Ces1cde−/− and Ces1−/− mice; assay type: in vivo; details: for lower plasma AUC0-2h / reduction of Cmax: oral cabazitaxel 10 mg/kg; for Kp at 2 h / Cmax / Tmax / AUC(0-t): male, FVB, mouse, po, 10 mg/kg; for Cmax / Tmax / AUC(0-t): plasma; for AUC(0-t): read-out: AUC0-120min
Method: The experiment was terminated by cardiac puncture at 2 hours. The organ collection and sample pretreatment were as described above.
Differences were considered statistically significant when P<0.05. All data are presented as geometric mean±SD.
This experiment was performed in the absence of ritonavir.

[3] = Preclinical population PK model (NONMEM) of oral cabazitaxel and ritonavir in Cyp3aXAV mice
Method: Population PK modeling was performed using nonlinear mixed-effects modeling in NONMEM (version 7.5.0, ICON Development Solutions, Ellicott City, MD, USA) with a gfortran compiler and Perl-speaks-NONMEM (version 5.3.0) (Beal SL SL. NONMEM user guides. Ellicott City, Maryland, USA. 1989; Lindbom et al. Comput Methods Programs Biomed. 2005). All models were fit with first order conditional estimation method with η-ε interaction (FOCE-I). Pirana (version 2.9.9) was used as a modeling interface. R (version 4.0.4) was used for data management, visual model evaluation, and analysis and visualization of simulation data.
Due to its predictive value for human hepatic CYP3A metabolism, the PK data obtained in the Cyp3aXAV mouse model was used in the current study (Damoiseaux et al. Pharmaceuticals. 2022). […] Depending on the study, each experiment was terminated by cardiac puncture at either 2 hours or 24 hours after administration.
In the development of the compartmental PK models, inclusion of model elements, such as the number of compartments, inter-individual variability (IIV), covariate effects, and residual random effects were guided by differences in objective function value (OFV), plausibility of parameter estimates, observation of trends in goodness of fit plots, and differences in estimation precision.
This well-stirred liver model assumes the liver to have a fixed volume and blood flow and hepatic clearance (CL) is calculated as a function of hepatic blood flow (Q1) and intrinsic clearance (CLi) following Eq.1.
In the variability model, it was assumed that IIV is log-normally distributed. With Eq. 5 defining the expression for the individual parameter estimate θi.
Where θpop represents population mean parameter estimate and ηi represents its individual deviation, which is distributed following N (0, ω^2). For both PK models, in was assumed that the residual error has both an additive and proportional component. The additive component of the error model was included only for observations which were designated as <LLOQ. Time points for which no quantity of either drug could be detected were discarded. For determination of the LLOQ a signal-to-noise ratio (S/N) of 10 is applied. Thus, a fixed additive error was set for observations <LLOQ which was set to 1/10th of the LLOQ for the respective compound. Consequently, individual model predictions are related to observations following Eq. 6.
Where Cobs,ij represents the observation for the ith subject and the jth measurement. With Cpred,ij the respective prediction. Both the proportional error ep, and additive error εa,ij were assumed to be distributed following N (0, σ^2). LLOQij was included as a data record, which was set to one for observations that were below the limit of quantification.
Evaluation of candidate models was based on plausibility and precision of parameter estimates, observation of trends in goodness-of-fit plots, η and ε-shrinkage, and decreases in OFV for which a change in OFV of 3.84, corresponding to α=0.05, was considered to be significant for hierarchical models. All models were required to achieve successful minimization. The predictive performance of the model was evaluated by simulating 500 datasets using the candidate models from which the 5th, 50th, and 95th percentiles were calculated, along with their 95% confidence intervals, which were compared with the 5th, 50th, and 95th of the observations using a visual predictive check (VPC). The uncertainty in the final parameter estimates was evaluated using a sampling importance-resampling (SIR) algorithm (Dosne et al. J Pharmacokinet Pharmacodyn. 2017).

in vivo = assay: in vivo
Method: Male wild-type, Oatp1a/1b^−/−, transgenic OATP1B1 and OATP1B3 mice in an Oatp1a/1b^−/− background, Oatp1a/1b/2b1b^−/−, Ces1b^−/− and Ces1cdeb^−/− mice were used.
The Accord (20 mg/mL) formulation contains polysorbate 80, citric acid and 395 mg/mL anhydrous ethanol. […] The stock solution was further diluted 5-fold with water to obtain a 2.5 mg/mL dosing solution for oral administration. The vehicle solution only consisted of polysorbate 80, ethanol and water (1:1:8, v/v/v). All dosing solutions were prepared freshly on the day of the experiment.
The termination time point was at 2 hours and 15 minutes. […] The termination, organ collection and sample pretreatment were as described above.
Non-compartmental analysis was performed to estimate the pharmacokinetic parameters by using the software package PK solutions 2.0.2 (SUMMIT, Research Service). The linear trapezoidal rule without extrapolating to infinity was used to calculate the area under the curve (AUC) of the plasma-concentration time curve for all the compounds. The peak plasma concentration (Cmax) and the time to reach peak plasma concentration (Tmax) were obtained directly from the individual raw data. […] GraphPad Prism 9 (GraphPad Software Inc., La Jolla, CA) was used for the statistical analysis and the preparation of the graphs. […]

[4] = Ces1cde−/− compared to wild-type mice
[5] = Ces1−/− compared to wild-type mice
[6] = Ces1cde−/− mice, oral 10 mg/kg cabazitaxel
[7] = Ces1−/− mice, oral 10 mg/kg cabazitaxel
[8] = wild-type mice, oral 10 mg/kg cabazitaxel
[9] = wild-type mice, oral 10 mg/kg cabazitaxel, 2 h
[10] = cabazitaxel PK model, allometrically scaled to a 70 kg human
[11] = inter-individual variability, population PK model, Cyp3aXAV mice

lower absolute testis concentration ([2]; Ces1cde−/− compared to wild-type mice, 2 h): 2.3 fold
lower plasma AUC0-2h [2, 4]: 6.7 fold
reduction of Cmax [2, 4]: 5.4 fold
SIC (% of dose), small intestinal content as percentage of dose ([2]; Ces1cde−/− mice, oral 10 mg/kg cabazitaxel, 2 h): 0.16 ± 0.09 % of dose
lower absolute testis concentration ([2]; Ces1−/− compared to wild-type mice, 2 h): 2.6 fold
lower plasma AUC0-2h [2, 5]: 7.2 fold
reduction of Cmax [2, 5]: 6.0 fold
SIC (% of dose), small intestinal content as percentage of dose ([2]; Ces1−/− mice, oral 10 mg/kg cabazitaxel, 2 h): 0.10 ± 0.04 % of dose
Kp at 2 h ([2]; brain, Ces1cde−/− mice, oral 10 mg/kg cabazitaxel, 2 h, read-out: Brain-to-plasma ratio): 0.28 ± 0.06
Kp at 2 h ([2]; brain, Ces1−/− mice, oral 10 mg/kg cabazitaxel, 2 h, read-out: Brain-to-plasma ratio): 0.43 ± 0.06
Kp at 2 h ([2]; brain, wild-type mice, oral 10 mg/kg cabazitaxel, 2 h, read-out: Brain-to-plasma ratio): 0.04 ± 0.003
Kp at 2 h ([2]; liver, Ces1cde−/− mice, oral 10 mg/kg cabazitaxel, 2 h, read-out: Liver-to-plasma ratio): 13.1 ± 4.6
Kp at 2 h ([2]; liver, Ces1−/− mice, oral 10 mg/kg cabazitaxel, 2 h, read-out: Liver-to-plasma ratio): 14.9 ± 4.49
Kp at 2 h ([2]; liver, wild-type mice, oral 10 mg/kg cabazitaxel, 2 h, read-out: Liver-to-plasma ratio): 1.64 ± 0.59
Cmax [2, 6]: 1080 ± 450 nM
Tmax [2, 6]: 25 min
AUC(0-t) [2, 6]: 1.03 ± 0.395 µM·h
Cmax [2, 7]: 969 ± 219 nM
Tmax [2, 7]: 32.5 min
AUC(0-t) [2, 7]: 0.946 ± 0.22 µM·h
Cmax [2, 8]: 5830 ± 1800 nM
Tmax [2, 8]: 25 min
AUC(0-t) [2, 8]: 6.86 ± 1.94 µM·h
CLiver [2, 9]: 2035 ± 460 pmol/g
Cbrain [2, 9]: 49.9 ± 5.96 pmol/g
SIC (% of dose), small intestinal content as percentage of dose [2, 9]: 0.11 ± 0.06 % of dose
Ka, 10 mg/kg, First-order absorption rate constant when co-administered with 10 mg/kg ritonavir ([3]; cabazitaxel PK model): 2.62 h⁻¹
Ka, 25 mg/kg, First-order absorption rate constant when co-administered with 25 mg/kg ritonavir ([3]; cabazitaxel PK model): 1.22 h⁻¹
Ka, First-order absorption rate constant ([3]; cabazitaxel PK model, Cyp3aXAV mice): 5.83 h⁻¹
CLint, Uninhibited intrinsic clearance ([3]; cabazitaxel PK model, Cyp3aXAV mice, allometrically scaled to a 70 kg human): 106 L/h
Q2, Inter compartment clearance [3, 10]: 27.7 L/h
VP, Peripheral volume [3, 10]: 613 L
IIV F [3, 11]: 22.7 CV %
IIV Ka [3, 11]: 63.4 CV %
VC, Central volume ([3]; population PK model, Cyp3aXAV mice, allometrically scaled to a 70 kg human): 293 L
SMILES: CO[C@H]1C(=O)[C@]2(C)[C@@H](OC)C[C@H]3OC[C@@]3(OC(C)=O)[C@H]2[C@H](OC(=O)c2ccccc2)[C@]2(O)C[C@H](OC(=O)[C@H](O)[C@@H](NC(=O)OC(C)(C)C)c3ccccc3)C(C)=C1C2(C)C [cabazitaxel]
previously observed difference of plasma AUC [1]: approximately 6 fold

SMILES: CC(C)c1nc(CN(C)C(=O)N[C@H](C(=O)N[C@@H](Cc2ccccc2)C[C@H](O)[C@H](Cc2ccccc2)NC(=O)OCc2cncs2)C(C)C)cs1 [ritonavir]
Tmax (in vivo; male, FVB, mouse, in vivo, po, 25 mg/kg): 65 min
Cbrain (in vivo; wild-type mice, oral 25 mg/kg ritonavir alone, 2 h 15 min): 123 ± 57.8 pmol/g
